Patent publication US20090197906A1, “REVERSION OF MALIGNANT PHENOTYPE WITH 9-HYDROXY ELLIPTICINE DERIVATIVES” (priority 2006, published 2009)

Tests used:
[1] = tested on: B16BL6 melanoma cell line; assay: MTT cell viability, combination with retinoids; assay type: cell-based; conditions: 10 nM retinoid only, 3 days
Method: The ex vivo cell viability inhibition by BA016DD537 in the presence of the retinoids 13CRA and ATRA was tested against B16BL6 melanoma cell line using the 3-(4,5 dimethylthiazol-2-yl)-2,5-diphenyl-2H-tetrazolium bromide (MTT) calorimetric assay.
(§1) About 1000 cells were seeded in a 96-well culture plate 24 hours before adding increasing concentrations of BA016DD537, from 1 pM to 100 pM, in the absence or in the presence of 10 nM of retinoids. The plate was incubated at 37° C. for 3 days. 10 μl MTT stock solution (5 mg/ml in phosphate buffer saline) was added to 90 μl of complete medium in each well, the incubation was continued for 3 h at 37° C. 100 μl of lysis buffer (20% sodium dodecyl sulfate, 10 mM HCl, 1×PBS) was added to each well, and the plate was incubated overnight. The absorbance was determined using an Integrated EIA Management System (Labsystem) at a wavelength of 570 nm.

[2] = tested on: actin in NIH 3T3 EF extract; assay: fluorescence anisotropy assay of actin dynamics in cell extract; assay type: biochemical; conditions: for effect on actin-F elongation rate constant and actin-F steady state value: NIH 3T3 EF cytosolic fractions; for k (rate constant of F-actin elongation) / Δ mA (anisotropy enhancement, steady state F-actin): malignant NIH 3T3 EF extract, compound at 200 nM
Method: Actin dynamics is known to be impaired in tumor cells with a subsequent decrease of F-actin to G-actin ratio. Actin dynamics has been quantified in tumor cell extracts using the fluorescence anisotropy assay which gains access to rate constant of F-actin elongation (k) and steady state concentration of F-actin (Δ mA).
All reactions were carried out at 22° C. and fluorescence anisotropy signal was recovered at 520 nm with excitation at 490 nm in a Beacon 2000 (Panvera). Alexa 488 actin (Molecular Probes) was centrifuged at 35 000 rpm for 2 h at 4° C. to sediment residual actin polymers in a Beckman L5-50B ultracentrifuge. […] 80% of the supernatant was withdrawn; the concentration was defined through fluorescence measurements (excitation at 490 nm and signal recovering at 520 nm). The ultracentrifuged actin concentration was calculated using the non ultracentrifuged Alexa 488 actin as a standard. The supernatant was aliquoted, frozen in liquid nitrogen and stored at −80° C.
Before experiment, an aliquot of ultracentrifuged Alexa 488 actin was diluted to a concentration of […] in G buffer (5 mM Tris pH 8.1, 2 mM CaCl2, 0.2 mM DTT, 0.2 mM ATP). 3 μl of diluted Alexa 488 actin was mixed in 168 μl of G buffer and actin monomers anisotropy was measured before the addition of 4 μl of polymerisation buffer (2.5 M KCl, 50 mM MgCl2, 25 mM ATP), 5 μl of G buffer in the presence or in the absence of the chemical molecule and 20 μl cellular extract of normal NIH 3T3 cells or malignant NIH 3T3 EF cells at 2 mg/ml. The final concentration of Alexa 488 actin was 4 nM. The ratio of unlabelled to labelled actin was about 140/4 nM. Measurements were made each 10 sec for 200 sec. Actin monomers anisotropy value was subtracted, yielding the anisotropy enhancement (Δ mA). The data were fitted with the equation Y=Ymax. [1−exp(−K.X)]. The curves start at zero and ascend to Ymax that corresponds to the steady state anisotropy value (Δ mA eq), with a rate constant K. Y is anisotropy values of which monomers anisotropy is subtracted and X is the time.

NIH 3T3 EF cells [3] = assay: F-actin network rescue, FITC-phalloidin fluorescence microscopy; assay type: cell-based; conditions: non cytotoxic concentrations (100 nM and 200 nM), three days
Method: Malignant NIH 3T3 EF cells were seeded onto glass cover slips at a density of 2000 cells per cm^2. The next day, BA016DD537 was applied to NIH 3T3 EF cells at various non cytotoxic concentrations (100 nM and 200 nM). Three days later, cells were fixed for 10 min in PBS containing 3.7% formaldehyde at 4° C. before examination with a fluorescence microscope. The formaldehyde solution was neutralized with 50 mM NH4Cl. Extraction was carried out for 4 min with 0.4% Triton X-100 in PBS. Cells were incubated for 1 h with blocking buffer (3% bovine serum albumin in PBS) and then for 20 min with FITC-phalloidin (Sigma) at room temperature. Cover slips were mounted in Vectashieldk (Zymed) and observed through a fluorescence microscope (Nikon).

NIH 3T3 EF cells [4] = assay: wound healing assay (cell motility); assay type: cell-based; conditions: non cytotoxic concentrations
Method: Wound healing assay was performed to evaluate the effect of BA016DD537 on motility of malignant NIH 3T3 EF cells and melanoma cell lines B16F10 and B16BL6. All the cells were incubated at 37° C. in a humidified 5% CO2 atmosphere. About 100 000-200 000 cells were seeded in a 6-well culture plate and BA016DD537, at the different concentrations, was added 24 hours later. Cells were grown for 3 days to confluence about 90-95% and small scratch-wounds (about 200 μm-1 mm width) were made with a pipette tip. Cell debris were removed, then the cultures were incubated in complete medium for 10 h in the presence of the same concentration of BA016DD537. Then, the cells were fixed for 10 min in PBS containing 3.7% formaldehyde at 4° C.

Melanoma B16 cells = assay: antitumor activity, i.p. grafted B16 melanoma, survival; assay type: in vivo, B6D2F1 mice
Method: Antitumor activity against B16 melanoma can be assessed in mice using i.p. graft of malignant cells followed by i.p. treatment. This type of protocol which by-pass various biodisponibility parameters gives information roughly on the maximal antitumor activity which can be expected for a given tumor.
Melanoma B16 cells (4×10^5) were injected in B6D2F1 mice using i.p. route at J0. Drugs, dissolved in sterile distilled water (0.5 ml) were injected daily using as well i.p. route from J1 to J9 at various concentrations. Control mice received distilled water only according the same protocol.
Treated and control mice were counted daily. TIC (mean survival of treated mice/mean survival of control mice) was calculated at J9.

B16F10 [5] = assay: MTT cell proliferation assay; assay type: cell-based, murine; conditions: Mus musculus, B16-F10; B16F10 (Example 11); read-out: IC50 (MTT Test-72 h)
Method: Growth studies were performed using the [3-(4,5 dimethylthiazol-2-yl)-2,5-diphenyl-2H-tetrazolium bromide] (Sigma) calorimetric assay.
as §1, with “1500 to 5000 cells, according to the cell line,” for “1000 cells”, “BA016DD537” for “BA016DD537, from 1 pM to 100 pM, in the absence”, “BA016FZ539.” for “in the presence of 10 nM of retinoids.”, “(10%” for “(20%”, “1% HCl 1N; pH 4.7)” for “10 mM HCl, 1×PBS)”, “nm. The proliferation rates were calculated from the OD readings using the untreated cells as 100%.” for “nm.”
(§2) Growth studies were performed using both MTT and SRB calorimetric assay (Sigma). About 1500 B16F10 or 3000 pancreatic cells (MIA PaCa-2 and PANC1) were seeded in a 96-well culture plate before adding increasing concentrations of monomesylate or bimesylate.
(§3) The plates were incubated at 37° C. for 3 days and then were treated depending on SRB or MTT protocols (see material and methods).
(§4) In these two cases, the proliferation rates were calculated from the OD readings using the untreated cells as 100%.

B16F10 [6] = assay: cloning assay in methylcellulose (colony formation); assay type: cell-based, murine; conditions: Mus musculus, B16-F10, 216 h; B16F10, clones counted after 9 days (Example 11); read-out: B16F10 Inhibition of colony formation IC50
Method: Cells were embedded in complete culture medium supplemented with 0.8% methylcellulose (Methocel MC4000, Sigma), seeded in triplicate into 35-mm dishes (Greiner Bio-one Ref 627102, Dominique Dutscher) and incubated at 37° C. in a humidified 5% CO2 atmosphere. The number of cells seeded was 1000 cells per dish. After one to three weeks, according to cell lines, macroscopic clones were counted.
Cells were embedded in complete culture medium supplemented with 0.8% methyl-cellulose (Methocel MC4000, Sigma), seeded in triplicate into 35-mm dishes and incubated at 37° C. in a humidified 5% CO2 atmosphere. The number of cells seeded was 1000 cells per dish. After 9 days, macroscopic clones of murine melanoma cell line B16F10 were counted.

Mia Paca-2 = assay: SRB (sulforhodamine B) cell proliferation assay; assay type: cell-based, human; conditions: Homo sapiens; Mia Paca-2 (Example 11); read-out: IC50 (SRB Test-72 h)
Method: (§5) After an incubation period, cell monolayers are fixed with 10% (wt/vol) trichloroacetic acid and stained for 30 min, after which the excess dye is removed by washing repeatedly with 1% (vol/vol) acetic acid. The protein-bound dye is dissolved in 10 mM Tris base solution for optic density determination (OD) at 510 nm using a microplate reader.
(§6) The proliferation rates were calculated from the OD readings using the untreated cells as 100%.
(§7) The effects BA016FZ539 on the growth of MIA PaCa-2 and PANC-1 pancreatic cells were tested over a range of concentrations from 500 μM to 0.16 μM and measured by using the SRB calorimetric assay.
(§8) About 5000 MIA PaCa-2 or PANC-1 cells were seeded in a 96-well culture plate while adding increasing concentrations of BA016FZ539.
as §2, §3, §4

PANC-1 = assay: SRB (sulforhodamine B) cell proliferation assay; assay type: cell-based, human; conditions: Homo sapiens; PANC-1 (Example 11); read-out: IC50 (SRB Test-72 h)
Method: as §5, §6, §7, §8, §2, §3, §4

B16F10 [7] = assay: SRB (sulforhodamine B) cell proliferation assay; assay type: cell-based, murine; conditions: Mus musculus, B16-F10; B16F10 (Example 11); read-out: IC50 (SRB Test-72 h)
Method: as §2, §3, §4

| Compound | cell viability inhibition (MTT) [1] | effect on actin-F elongation rate constant and actin-F steady state value [2] | k (rate constant of F-actin elongation) [2] | Δ mA (anisotropy enhancement, steady state F-actin) [2] | rebuilding of actin network / morphology (NIH 3T3 EF cells [3]) | migration of treated malignant cells into the wound (NIH 3T3 EF cells [4]) | also measured |
| --- | --- | --- | --- | --- | --- | --- | --- |
| CC1=C(/C=C/C(C)=C/C=C/C(C)=C\C(=O)O)C(C)(C)CCC1 [13CRA, 13-cis-retinoic acid, reference compound] | No cell viability inhibition |  |  |  |  |  |  |
| CC1=C(/C=C/C(C)=C/C=C/C(C)=C/C(=O)O)C(C)(C)CCC1 [ATRA, all-transretinoic acid, reference compound] | No cell viability inhibition |  |  |  |  |  |  |
| Cc1c2cc[n+](C)cc2c(C)c2c1[nH]c1ccc(O)cc12 [BA016CA77, 9-hydroxy-2(beta-methyl)-ellipticinium acetate] |  | do not increase the actin-F elongation rate constant and the actin-F steady state value | 0.0416 s⁻¹ | 38.33 | neither 9-hydroxy-2-ethyl)-ellipticinium acetate, nor 9-hydroxy-2(methyl)-ellipticinium acetate (Celiptium) were found active | migrate in the same way as non treated malignant cells | T/C (%) (mean survival of treated mice/mean survival of control mice) (Melanoma B16 cells; 0.125 mg/kg/inj. i.p. daily J1 to J9): 121%; T/C (%) (mean survival of treated mice/mean survival of control mice) (Melanoma B16 cells; 0.25 mg/kg/inj. i.p. daily J1 to J9): 122%; T/C (%) (mean survival of treated mice/mean survival of control mice) (Melanoma B16 cells; 0.5 mg/kg/inj. i.p. daily J1 to J9): 58%; antitumor activity against B16 melanoma (T/C>125% = significant) (Melanoma B16 cells; i.p. graft, i.p. treatment): no significant antitumor activity |
| CC(=O)[O-].CC[n+]1ccc2c(C)c3[nH]c4ccc(O)cc4c3c(C)c2c1 [BA016CA107, 9-hydroxy-2(beta-ethyl)-ellipticinium acetate] |  | do not increase the actin-F elongation rate constant and the actin-F steady state value | 0.0280 s⁻¹ | 42.14 | neither 9-hydroxy-2-ethyl)-ellipticinium acetate, nor 9-hydroxy-2(methyl)-ellipticinium acetate (Celiptium) were found active | migrate in the same way as non treated malignant cells |  |
| Cc1c2cc[n+](CCN3CCCCC3)cc2c(C)c2c1[nH]c1ccc(O)cc12 [Bimesylate] |  |  |  |  |  |  | IC50 (B16F10 [5]): 2800 nM; IC50 (B16F10 [6]): 21 nM; IC50 (Mia Paca-2): 2500 nM; IC50 (PANC-1): 37.6 µM; IC50 (B16F10 [7]): 1800 nM |
